{"source": "patent US4873240A", "about": "“Method for administering ethanolamine derivatives to livestock” (Beecham Group p.l.c., priority 1985, dated 1989)", "key": {"[1]": {"assay": "Pup weight and rectal temperature after administration to pregnant rats", "assay_type": "in vivo, Sprague-Dawley rats", "details": "days 2-20 of gestation, mean ± S.E.M.", "experimental": "Female Sprague-Dawley rates were mated, fed on powdered rodent diet and given compound P1 as a dietary admixture (150 ppm) from days 2-20 of gestation. Thereafter no further compound was given. Parturition occurred on day 22. The pups were weight 24 hours after birth. 48 hours after birth 7 pups were removed at random from 3 control and 3 treated litters, placed 29° C. and rectal temperature was monitored. Results are expressed as means of the number of values shown in parentheses±S.E.M."}, "[2]": {"assay": "Weight gain and food conversion efficiency of broiler chicken, 30-56 days", "assay_type": "in vivo, Marshall sexed broiler chicken", "details": "3 ppm in feed", "description": "Marshall sexed broiler chicken, 30 days old, were fed on a basal feed, which was designed as a practical broiler and finisher feed. Additive (see below) was substituted for maize in tis diet. The supplemented diets were fed until the birds were 56 days old."}, "[3]": {"assay": "Weight gain, food intake and body composition of genetically obese (ob/ob) mice dosed for 28 days", "assay_type": "in vivo, female C57Bl/6 genetically obese (ob/ob) mice", "experimental": "(§1) Remale C57Bl/6 genetically obese (ob/ob) or normal lean mice were fed on a powdered breeders diet and given the compounds either once daily by oral gavage, or by admixture with the diet for 28 days. Fifty parts per million (ppm) in the diet is equivalent to a dose level of about eight to ten )obese mie) or twelve to thirteen (normal mice) milligrams per kilogram body weight per dya. Body lipid content and lean body mass were determined gravimetrically. There were seven or eight mice in each treatment group and results are expressed as a percentage of values for an untreated group of similar size."}, "[4]": {"assay": "Weight gain, food intake and body composition of normal lean mice dosed for 28 days", "assay_type": "in vivo, female C57Bl/6 normal lean mice", "experimental": "as §1"}}}
{"smiles": "COC(=O)c1ccc(CC(C)NCC(O)c2ccccc2)cc1", "note": "(centres unmarked) [Preparation P1, N-[2-(4-carbomethoxyphenyl)-1-methylethyl]-2-hydroxy-2-phenylethanamine]", "values": [{"measurement": "Weight, All pups", "setting": "[1]; 150 ppm in diet of dams, 24 hours after birth, n=52, control 5.3 ± 0.1", "result": "5.9 ± 0.1", "unit": "g"}, {"measurement": "Weight, Pups monitored for body temperature", "setting": "[1]; 150 ppm in diet of dams, n=7, control 5.0 ± 0.1", "result": "6.6 ± 0.4", "unit": "g"}, {"measurement": "Drop in rectal temperature after 10 mins @ 29° C.", "setting": "[1]; pups 48 hours after birth, dams 150 ppm in diet, n=7, control 2.76 ± 0.16", "result": "1.98 ± 0.06"}, {"measurement": "Rectal temperature after 10 mins @ 29° C.", "setting": "[1]; pups 48 hours after birth, dams 150 ppm in diet, n=7, control 29.4 ± 0.4", "result": "31.2 ± 0.5"}, {"measurement": "Weight gain 30-56 days", "setting": "[2]; female, control 1309", "result": 1326, "unit": "g"}, {"measurement": "Food conversion efficiency 30-56 days", "setting": "[2]; female, control .329", "result": ".333"}, {"measurement": "Weight gain 30-56 days", "setting": "[2]; male, control 1644", "result": 1784, "unit": "g"}, {"measurement": "Food conversion efficiency 30-56 days", "setting": "[2]; male, control .367", "result": ".385"}, {"measurement": "Amt. of Lipid", "setting": "[3]; 50 ppm in diet", "result": "103 % of control values"}, {"measurement": "Food Intake", "setting": "[3]; 50 ppm in diet", "result": "119 % of control values"}, {"measurement": "Gain/Intake", "setting": "[3]; 50 ppm in diet", "result": "168 % of control values"}, {"measurement": "Lean Body mass", "setting": "[3]; 50 ppm in diet", "result": "111 % of control values"}, {"measurement": "Weight Gain", "setting": "[3]; 50 ppm in diet", "result": "200 % of control values"}]}
{"smiles": "COC(=O)c1ccc(CC(C)NCC(O)c2ccc(O)c(CO)c2)cc1", "note": "[Preparation P2, N-[2-(4-carbomethoxyphenyl)-L-methylethyl]-2-hydroxy-2-(4-hydroxy-3-hydroxymethylphenyl) ethanamine]", "values": [{"measurement": "Amt. of Lipid", "setting": "[4]; 75 ppm in diet", "result": "78 % of control values"}, {"measurement": "Food Intake", "setting": "[4]; 75 ppm in diet", "result": "107 % of control values"}, {"measurement": "Gain/Intake", "setting": "[4]; 75 ppm in diet", "result": "120 % of control values"}, {"measurement": "Lean Body mass", "setting": "[4]; 75 ppm in diet", "result": "107 % of control values"}, {"measurement": "Weight Gain", "setting": "[4]; 75 ppm in diet", "result": "128 % of control values"}, {"measurement": "Amt. of Lipid", "setting": "[3]; 10 mg/kg po once daily", "result": "77 % of control values"}, {"measurement": "Food Intake", "setting": "[3]; 10 mg/kg po once daily", "result": "111 % of control values"}, {"measurement": "Gain/Intake", "setting": "[3]; 10 mg/kg po once daily", "result": "70 % of control values"}, {"measurement": "Lean Body mass", "setting": "[3]; 10 mg/kg po once daily", "result": "113 % of control values"}, {"measurement": "Weight Gain", "setting": "[3]; 10 mg/kg po once daily", "result": "78 % of control values"}, {"measurement": "Amt. of Lipid", "setting": "[3]; 36 ppm in diet", "result": "101 % of control values"}, {"measurement": "Food Intake", "setting": "[3]; 36 ppm in diet", "result": "112 % of control values"}, {"measurement": "Gain/Intake", "setting": "[3]; 36 ppm in diet", "result": "99 % of control values"}, {"measurement": "Lean Body mass", "setting": "[3]; 36 ppm in diet", "result": "112 % of control values"}, {"measurement": "Weight Gain", "setting": "[3]; 36 ppm in diet", "result": "111 % of control values"}]}
{"smiles": "COC(=O)c1ccc(CC(C)NCC(O)c2ccc(O)c(CO)c2)cc1", "note": "(centres unmarked) [Preparation P3]", "values": [{"measurement": "Amt. of Lipid", "setting": "[4]; 20 mg/kg po once daily", "result": "69 % of control values"}, {"measurement": "Gain/Intake", "setting": "[4]; 20 mg/kg po once daily", "result": "90 % of control values"}, {"measurement": "Lean Body mass", "setting": "[4]; 20 mg/kg po once daily", "result": "113 % of control values"}, {"measurement": "Weight Gain", "setting": "[4]; 20 mg/kg po once daily", "result": "171 % of control values"}]}
{"smiles": "COC(=O)COc1ccc(CC(C)NCC(O)c2cccc(Cl)c2)cc1", "note": "(centres unmarked) [Preparation P4, N-[2-(4-carbomethoxymethoxyphenyl)-1-methylethl]-2-hydroxy-2-(3-chlorophenyl)ethanamine]", "values": [{"measurement": "Amt. of Lipid", "setting": "[3]; 0.46 ppm in diet", "result": "105 % of control values"}, {"measurement": "Food Intake", "setting": "[3]; 0.46 ppm in diet", "result": "116 % of control values"}, {"measurement": "Gain/Intake", "setting": "[3]; 0.46 ppm in diet", "result": "124 % of control values"}, {"measurement": "Lean Body mass", "setting": "[3]; 0.46 ppm in diet", "result": "107 % of control values"}, {"measurement": "Weight Gain", "setting": "[3]; 0.46 ppm in diet", "result": "143 % of control values"}]}
{"smiles": "COC(=O)COc1ccc(CC(C)NCC(O)c2cc(Cl)c(N)c(Cl)c2)cc1", "note": "(centres unmarked) [Preparation P5, N-[2-(4-carbomethoxymethoxyphenyl)-1-methylethyl]-2-hydroxy-2-(4-amino-3,5-dichlorophenyl)ethanamine]", "values": [{"measurement": "Food Intake", "setting": "[4]; 50 ppm in diet", "result": "108 % of control values"}, {"measurement": "Gain/Intake", "setting": "[4]; 50 ppm in diet", "result": "116 % of control values"}, {"measurement": "Lean Body mass", "setting": "[4]; 50 ppm in diet", "result": "108 % of control values"}, {"measurement": "Weight Gain", "setting": "[4]; 50 ppm in diet", "result": "125 % of control values"}]}
